Source: article PMC6125145, “Mitochondrial Supercomplexes Do Not Enhance Catalysis by Quinone Channeling” (Cell Metabolism, 2018)

Columns and labels:
Assay type in all cases: biochemical
[1] = target: T1, AOX (alternative oxidase) (Trypanosoma brucei, UniProt Q26710); test: NADH:O2 oxidoreduction of SMPs with added purified AOX, cyanide-insensitive rate; conditions: 300 or 500 nM ascofuranone, 0.1 mg AOX per mg SMP, 200 μM NADH, 400 μM NaCN (500 nM trace) or gramicidin (300 nM), pH 7.5, 32 °C
T1 construct: expressed in E. coli FN102 (hemA deficient), purified in DDM and added to membranes

[2] = target: T2, complex I (CI, NADH:ubiquinone oxidoreductase) (Bos taurus, UniProt P03887+P17694+P42026); test: reverse electron transfer (NAD+ reduction) in bovine heart SMPs, NADH absorbance; conditions: RET assay: 1 mM NAD+, 10 mM succinate, 1 mM MgATP, 50 μg/mL SMPs, pH 7.5, 32 °C, anaerobic; RET direction only, NADH oxidation not inhibited; RET also needs complex II
T2 construct: gene NDUFS2; native enzyme in coupled submitochondrial particles (inverted inner-membrane vesicles) from bovine heart mitochondria; in supercomplexes; with NADH-ubiquinone oxidoreductase 75 kDa subunit, mitochondrial; NADH dehydrogenase [ubiquinone] flavoprotein 1, mitochondrial; NADH dehydrogenase [ubiquinone] flavoprotein 2, mitochondrial; NADH dehydrogenase [ubiquinone] iron-sulfur protein 3, mitochondrial; NADH dehydrogenase [ubiquinone] iron-sulfur protein 8, mitochondrial; NADH-ubiquinone oxidoreductase chain 2; NADH-ubiquinone oxidoreductase chain 3; NADH-ubiquinone oxidoreductase chain 4; NADH-ubiquinone oxidoreductase chain 4L; NADH-ubiquinone oxidoreductase chain 5; NADH-ubiquinone oxidoreductase chain 6

[3] = target: T1, AOX (alternative oxidase); test: NADH:O2 oxidoreduction via complex I with AOX added to SMPs or CI-only proteoliposomes; conditions: quinol produced by complex I from endogenous ubiquinone or ubiquinone-10 in proteoliposomes, pH 7.5, 32 °C

T1 sequence (Q26710 25-329): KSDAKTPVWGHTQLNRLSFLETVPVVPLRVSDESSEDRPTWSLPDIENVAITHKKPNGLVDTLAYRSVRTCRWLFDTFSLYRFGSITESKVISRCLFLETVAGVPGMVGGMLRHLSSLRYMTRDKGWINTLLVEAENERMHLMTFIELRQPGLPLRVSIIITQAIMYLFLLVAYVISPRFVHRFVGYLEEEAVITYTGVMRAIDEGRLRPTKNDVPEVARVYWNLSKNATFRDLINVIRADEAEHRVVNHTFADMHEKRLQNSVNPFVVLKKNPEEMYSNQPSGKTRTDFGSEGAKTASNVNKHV
T2 sequence (P17694 34-463): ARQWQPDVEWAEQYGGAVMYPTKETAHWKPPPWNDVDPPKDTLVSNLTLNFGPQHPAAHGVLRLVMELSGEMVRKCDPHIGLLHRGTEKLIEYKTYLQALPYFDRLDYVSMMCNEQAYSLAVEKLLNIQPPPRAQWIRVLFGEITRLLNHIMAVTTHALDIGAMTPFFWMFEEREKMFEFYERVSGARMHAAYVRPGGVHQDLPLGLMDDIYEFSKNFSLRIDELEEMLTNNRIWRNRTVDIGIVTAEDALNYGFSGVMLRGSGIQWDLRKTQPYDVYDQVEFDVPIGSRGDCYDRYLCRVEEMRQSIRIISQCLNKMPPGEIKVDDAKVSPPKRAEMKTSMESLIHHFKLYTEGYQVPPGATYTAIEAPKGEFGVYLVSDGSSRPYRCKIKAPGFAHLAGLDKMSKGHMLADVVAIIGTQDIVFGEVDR
T2 sequence (P03887 whole entry): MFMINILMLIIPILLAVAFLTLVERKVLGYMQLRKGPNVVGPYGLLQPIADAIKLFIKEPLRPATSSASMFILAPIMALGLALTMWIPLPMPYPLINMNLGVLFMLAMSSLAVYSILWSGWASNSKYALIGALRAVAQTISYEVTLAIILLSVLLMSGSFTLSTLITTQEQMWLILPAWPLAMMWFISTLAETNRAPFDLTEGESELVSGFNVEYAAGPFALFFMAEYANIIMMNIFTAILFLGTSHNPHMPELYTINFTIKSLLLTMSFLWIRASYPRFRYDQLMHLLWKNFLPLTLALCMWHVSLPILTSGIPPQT
T2 sequence (P42026 38-216): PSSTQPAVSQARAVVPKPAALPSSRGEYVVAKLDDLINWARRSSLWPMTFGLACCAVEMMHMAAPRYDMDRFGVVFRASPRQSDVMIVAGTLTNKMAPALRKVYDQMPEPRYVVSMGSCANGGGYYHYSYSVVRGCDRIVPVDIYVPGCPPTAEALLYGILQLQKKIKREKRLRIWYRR
T2 sequence (P25708 21-464 partner): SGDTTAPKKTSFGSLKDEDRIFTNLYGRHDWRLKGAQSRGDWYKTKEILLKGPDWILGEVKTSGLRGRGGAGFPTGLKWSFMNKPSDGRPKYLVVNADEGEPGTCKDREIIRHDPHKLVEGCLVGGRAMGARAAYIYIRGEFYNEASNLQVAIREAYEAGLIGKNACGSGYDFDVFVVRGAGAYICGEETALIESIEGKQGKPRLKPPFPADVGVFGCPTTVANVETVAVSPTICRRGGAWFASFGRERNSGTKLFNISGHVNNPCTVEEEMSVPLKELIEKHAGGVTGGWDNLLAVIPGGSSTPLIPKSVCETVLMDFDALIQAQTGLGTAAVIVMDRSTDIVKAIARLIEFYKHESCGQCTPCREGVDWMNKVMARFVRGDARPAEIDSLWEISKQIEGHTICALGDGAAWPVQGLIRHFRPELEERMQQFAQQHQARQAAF
T2 sequence (P15690 24-727 partner): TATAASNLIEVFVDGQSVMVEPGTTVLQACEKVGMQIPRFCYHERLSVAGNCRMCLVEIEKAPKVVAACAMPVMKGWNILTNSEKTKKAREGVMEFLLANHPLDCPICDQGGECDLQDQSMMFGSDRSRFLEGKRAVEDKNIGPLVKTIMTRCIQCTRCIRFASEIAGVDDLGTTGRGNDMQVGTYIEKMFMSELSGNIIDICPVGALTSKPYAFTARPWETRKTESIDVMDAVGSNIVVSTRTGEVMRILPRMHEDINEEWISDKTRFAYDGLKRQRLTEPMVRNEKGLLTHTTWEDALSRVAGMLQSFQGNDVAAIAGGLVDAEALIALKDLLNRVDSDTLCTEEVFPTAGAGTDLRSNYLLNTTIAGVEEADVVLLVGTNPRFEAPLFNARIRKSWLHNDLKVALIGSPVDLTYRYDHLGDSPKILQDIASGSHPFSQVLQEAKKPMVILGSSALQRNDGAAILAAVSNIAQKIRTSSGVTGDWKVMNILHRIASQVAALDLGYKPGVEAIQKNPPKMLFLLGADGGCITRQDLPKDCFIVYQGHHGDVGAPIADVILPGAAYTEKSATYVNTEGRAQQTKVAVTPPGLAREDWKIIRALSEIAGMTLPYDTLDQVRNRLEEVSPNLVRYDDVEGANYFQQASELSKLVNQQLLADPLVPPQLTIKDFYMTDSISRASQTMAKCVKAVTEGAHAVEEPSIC

Structure (SMILES) | NADH:O2 oxidoreduction of SMPs with added purified AOX, cyanide-insensitive rate [1] | IC50 [2] [nM] | NADH:O2 oxidoreduction via complex I with AOX added to SMPs or CI-only proteolip [3]
C/C(=C\Cc1c(O)c(Cl)c(C)c(C=O)c1O)CC/C=C(\C)[C@@H]1CC(=O)C(C)(C)O1 [ascofuranone] | AOX-catalyzed quinol oxidation is insensitive to cyanide | 440 ± 40 | –
COc1c(O)c(C)c(C/C=C(\C)CC/C=C(\C)CC/C=C(\C)CC/C=C(\C)CC/C=C(\C)CC/C=C(\C)CC/C=C(\C)CC/C=C(\C)CC/C=C(\C)CCC=C(C)C)c(O)c1OC [quinol] | – | – | also observed in synthetic, CI-only proteoliposomes containing ubiquinone-10
